Assay results reported in patent US9334286B2, “Pharmacologically active compounds” (Cancer Research Technology Limited, priority 2012, dated 2016).

The compounds below were run against full length MPS1 (Homo sapiens (Human), UniProt P33981) (assay: Measurement of inhibition of MPS1 kinase (Caliper EZ reader, fluorescent labelled peptide H236)). Conditions: not given.
Assay type: biochemical
Description: The reaction was carried out for 60 min at room temperature and stopped by the addition of buffer (10 μl) containing 20 mM EDTA, 0.05% (v/v) Brij-35, in 0.1M HEPES-buffered saline (Free acid, Sigma, UK). The plate was read on a Caliper EZ reader II (Caliper Life Sciences).
The reader provides a Software package (‘Reviewer’) which converts the peak heights into % conversion by measuring both product and substrate peak and also allows selection of control well which represent 0% and 100% inhibition respectively. The % inhibition of the compounds is calculated relative to the means of selected control wells. IC50s are determined by testing the compounds at a range of concentrations from 0.25 nM-100 μM. The % inhibitions at each concentration are then fitted to a 4 parameter logistic fit: y=(a+((b−a)/(1+((c/x^d)))) where a=asym min, b=asym max, c=IC50 and d=hill coefficient

Chain of full length MPS1 (P33981 whole entry): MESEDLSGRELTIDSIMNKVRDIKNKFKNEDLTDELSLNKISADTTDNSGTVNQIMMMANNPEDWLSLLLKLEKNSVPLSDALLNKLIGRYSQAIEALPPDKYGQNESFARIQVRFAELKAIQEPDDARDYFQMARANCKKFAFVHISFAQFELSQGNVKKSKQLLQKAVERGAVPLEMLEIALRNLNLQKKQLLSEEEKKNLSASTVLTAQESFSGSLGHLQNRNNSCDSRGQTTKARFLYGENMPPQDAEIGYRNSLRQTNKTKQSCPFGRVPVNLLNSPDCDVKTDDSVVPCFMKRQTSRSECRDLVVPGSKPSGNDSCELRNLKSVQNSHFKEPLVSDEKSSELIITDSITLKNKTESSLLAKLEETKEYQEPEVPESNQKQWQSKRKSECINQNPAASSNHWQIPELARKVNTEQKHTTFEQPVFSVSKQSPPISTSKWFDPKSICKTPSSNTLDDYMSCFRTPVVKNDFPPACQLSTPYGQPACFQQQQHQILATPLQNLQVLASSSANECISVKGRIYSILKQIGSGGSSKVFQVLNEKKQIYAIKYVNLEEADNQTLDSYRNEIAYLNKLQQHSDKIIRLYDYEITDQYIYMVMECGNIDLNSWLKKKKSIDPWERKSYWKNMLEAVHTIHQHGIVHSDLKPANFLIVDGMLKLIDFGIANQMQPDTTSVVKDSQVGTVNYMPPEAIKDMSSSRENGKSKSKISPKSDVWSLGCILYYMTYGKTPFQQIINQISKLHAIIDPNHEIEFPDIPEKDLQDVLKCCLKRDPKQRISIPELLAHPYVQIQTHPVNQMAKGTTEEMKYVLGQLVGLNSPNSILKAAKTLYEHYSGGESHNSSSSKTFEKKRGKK

| IC50 | Compound |
| --- | --- |
| 28 nM | COCCn1cc(-c2ccc3cnc(Nc4ccc(-c5cnc(CO)n5C)cc4OC)cc3c2)cn1 [Example 25, (5-(3-Methoxy-4-((6-(1-(2-methoxyethyl)-1H-pyrazol-4-yl)isoquinolin-3-yl)amino)phenyl)-1-methyl-1H-imidazol-2-yl)methanol] |

Same assay, conditions: full length MPS1 12.5 nM or 3 nM, peptide H236 5 μM, ATP 10 μM, 60 min at room temperature

| Compound | IC50 |
| --- | --- |
| COc1cc(-c2cnc(C)n2C)ccc1Nc1cc2cc(-c3cncnc3)ccc2cn1 [Example 17, N-(4-(1,2-dimethyl-1H-imidazol-5-yl)-2-methoxyphenyl)-6-(pyrimidin-5-yl)isoquinolin-3-amine] | 14 nM |
| COc1cc(-c2cnc(C)n2C)ccc1Nc1cc2cc(C3CC3)ccc2cn1 [Example 18, 6-Cyclopropyl-N-(4-(1,2-dimethyl-1H-imidazol-5-yl)-2-methoxyphenyl)isoquinolin-3-amine] | 144 nM |
| COc1cc(-c2cnc(C)n2C)ccc1Nc1cc2cc(-c3cn(C)nc3C)ccc2cn1 [Example 19, N-(4-(1,2-dimethyl-1H-imidazol-5-yl)-2-methoxyphenyl)-6-(1,3-dimethyl-1H-pyrazol-4-yl)isoquinolin-3-amine] | 30 nM |
| Cc1ncc(-c2ccc(Nc3cc4cc(-c5cnn(C)c5)ccc4cn3)c(Cl)c2)n1C [Example 22, N-(2-chloro-4-(1,2-dimethyl-1H-imidazol-5-yl)phenyl)-6-(1-methyl-1H-pyrazol-4-yl)isoquinolin-3-amine] | 4 nM |
| COc1cc(-c2cnc(C)n2C)ccc1Nc1cc2cc(-c3cncc(C)c3)ccc2cn1 [Example 26, N-(4-(1,2-dimethyl-1H-imidazol-5-yl)-2-methoxyphenyl)-6-(5-methylpyridin-3-yl)isoquinolin-3-amine] | 10 nM |
| COc1cc(-c2cnc(C)n2C)ccc1Nc1cc2cc(-c3cnnn3C)ccc2cn1 [Example 27, N-(4-(1,2-dimethyl-1H-imidazol-5-yl)-2-methoxyphenyl)-6-(1-methyl-1H-1,2,3-triazol-5-yl)isoquinolin-3-amine] | 4 nM |
| COc1cc(-c2cnn(C)c2CO)ccc1Nc1cc2cc(-c3cnn(CC(C)(C)O)c3)ccc2cn1 [Example 36, 1-(4-(3-((4-(5-(Hydroxymethyl)-1-methyl-1H-pyrazol-4-yl)-2-methoxyphenyl)amino)-isoquinolin-6-yl)-1H-pyrazol-1-yl)-2-methylpropan-2-ol] | 3 nM |
| COc1cc(-c2cnc(C)n2C)ccc1Nc1cc2cc(-c3cnn(CC4COC4)c3)ccc2cn1 [Example 37, N-(4-(1,2-Dimethyl-1H-imidazol-5-yl)-2-methoxyphenyl)-6-(1-(oxetan-3-ylmethyl)-1H-pyrazol-4-yl)isoquinolin-3-amine] | 5 nM |
| COc1cc(-c2cnc(C)n2C)ccc1Nc1cc2cc(-c3cnn(C4CCOCC4)c3)ccc2cn1 [Example 39, N-(4-(1,2-Dimethyl-1H-imidazol-5-yl)-2-methoxyphenyl)-6-(1-(tetrahydro-2H-pyran-4-yl)-1H-pyrazol-4-yl)isoquinolin-3-amine] | 6 nM |
| COc1cc(-c2nncn2C)ccc1Nc1cc2cc(-c3cnn(CC(C)(C)O)c3)ccc2cn1 [Example 41, 1-(4-(3-((2-Methoxy-4-(4-methyl-4H-1,2,4-triazol-3-yl)phenyl)amino)isoquinolin-6-yl)-1H-pyrazol-1-yl)-2-methylpropan-2-ol] | 1 nM |
| Cc1ncc(-c2ccc(Nc3cc4cc(-c5cnn(CC(C)(C)O)c5)ccc4cn3)c(Cl)c2)n1C [Example 42, 1-(4-(3-((2-Chloro-4-(1,2-dimethyl-1H-imidazol-5-yl)phenyl)amino)isoquinolin-6-yl)-1H-pyrazol-1-yl)-2-methylpropan-2-ol] | 3 nM |
| COc1cc(-c2cnc(C)n2C)ccc1Nc1cc2cc(-c3cnn(CC4(O)CCC4)c3)ccc2cn1 [Example 43, 1-((4-(3-((4-(1,2-Dimethyl-1H-imidazol-5-yl)-2-methoxyphenyl)amino)isoquinolin-6-yl)-1H-pyrazol-1-yl)methyl)cyclobutanol] | 3 nM |
| COc1cc(-c2cnc(C)n2C)ccc1Nc1cc2cc(-c3cnn(CC(F)(F)F)c3)ccc2cn1 [Example 44, N-(4-(1,2-Dimethyl-1H-imidazol-5-yl)-2-methoxyphenyl)-6-(1-(2,2,2-trifluoroethyl)-1H-pyrazol-4-yl)isoquinolin-3-amine] | 4 nM |
| CC(C)(O)Cn1cc(-c2ccc3cnc(Nc4ccc(N5CCOCC5)cc4Cl)cc3c2)cn1 [Example 45, 1-(4-(3-(2-Chloro-4-morpholinophenylamino)isoquinolin-6-yl)-1H-pyrazol-1-yl)-2-methylpropan-2-ol] | 45 nM |
| Cc1ncc(-c2ccc(Nc3cc4cc(-c5cnn(CC(C)(C)O)c5)ccc4cn3)cc2)n1C [Example 47, 1-(4-(3-(4-(1,2-Dimethyl-1H-imidazol-5-yl)phenylamino)isoquinolin-6-yl)-1H-pyrazol-1-yl)-2-methylpropan-2-ol] | 6 nM |
| COc1cc(C#N)ccc1Nc1cc2cc(-c3cnn(CC(C)(C)O)c3)ccc2cn1 [Example 49, 4-(6-(1-(2-Hydroxy-2-methylpropyl)-1H-pyrazol-4-yl)isoquinolin-3-ylamino)-3-methoxy-benzonitrile] | 11 nM |

The next lines start with the values.

| IC50 | Compound |
| --- | --- |
| 3 nM | COc1cc(-c2cncn2C)ccc1Nc1cc2cc(-c3cnn(C)c3)ccc2cn1 [Example 21, N-(2-methoxy-4-(1-methyl-1H-imidazol-5-yl)phenyl)-6-(1-methyl-1H-pyrazol-4-yl)isoquinolin-3-amine] |
| 3 nM | COc1cc(-c2cnc(C)n2C)ccc1Nc1cc2cc(-c3cnn(CC4CCC4)c3)ccc2cn1 [Example 28, 6-(1-(Cyclobutylmethyl)-1H-pyrazol-4-yl)-N-(4-(1,2-dimethyl-1H-imidazol-5-yl)-2-methoxyphenyl)isoquinolin-3-amine] |
| 3 nM | COc1cc(-c2cnc(C)n2C)ccc1Nc1cc2cc(-c3cnn(C4COC4)c3)ccc2cn1 [Example 33, N-(4-(1,2-Dimethyl-1H-imidazol-5-yl)-2-methoxyphenyl)-6-(1-(oxetan-3-yl)-1H-pyrazol-4-yl)isoquinolin-3-amine] |
| 3 nM | COc1cc(-c2cnc(C)n2C)ccc1Nc1cc2cc(-c3cnn(C)c3CO)ccc2cn1 [Example 34, (4-(3-((4-(1,2-Dimethyl-1H-imidazol-5-yl)-2-methoxyphenyl)amino)isoquinolin-6-yl)-1-methyl-1H-pyrazol-5-yl)methanol] |
| 3 nM | COCCn1c(-c2ccc(Nc3cc4cc(-c5cnn(CC(C)(C)O)c5)ccc4cn3)c(OC)c2)cnc1C [Example 35, 1-(4-(3-((2-Methoxy-4-(1-(2-methoxyethyl)-2-methyl-1H-imidazol-5-yl)phenyl)amino)-isoquinolin-6-yl)-1H-pyrazol-1-yl)-2-methylpropan-2-ol] |
| 2 nM | COc1cc(-c2cnc(C)n2C)ccc1Nc1cc2cc(-c3cnn(C)c3C)ccc2cn1 [Example 20, N-(4-(1,2-dimethyl-1H-imidazol-5-yl)-2-methoxyphenyl)-6-(1,5-dimethyl-1H-pyrazol-4-yl)isoquinolin-3-amine] |
| 2 nM | COc1cc(-c2cnc(C)n2C)ccc1Nc1cc2cc(-c3cnn(C)c3)ccc2cn1 [Example 23, N-(4-(1,2-dimethyl-1H-imidazol-5-yl)-2-methoxyphenyl)-6-(1-methyl-1H-pyrazol-4-yl)isoquinolin-3-amine] |
| 2 nM | COc1cc(C(=O)N2CC(OC)C2)ccc1Nc1cc2cc(-c3cnn(C)c3)ccc2cn1 [Example 24, (3-Methoxy-4-((6-(1-methyl-1H-pyrazol-4-yl)isoquinolin-3-yl)amino)phenyl)(3-methoxyazetidin-1-yl)methanone] |
| 2 nM | COc1cc(-c2cnc(C)n2C)ccc1Nc1cc2cc(-c3cnn(CC(C)(C)O)c3)ccc2cn1 [Example 29, 1-(4-(3-((4-(1,2-Dimethyl-1H-imidazol-5-yl)-2-methoxyphenyl)amino)isoquinolin-6-yl)-1H-pyrazol-1-yl)-2-methylpropan-2-ol] |
| 2 nM | COc1cc(-c2cnc(C)n2C)ccc1Nc1cc2cc(-c3cnn(CC4(C)COC4)c3)ccc2cn1 [Example 30, N-(4-(1,2-Dimethyl-1H-imidazol-5-yl)-2-methoxyphenyl)-6-(1-((3-methyloxetan-3-yl)methyl)-1H-pyrazol-4-yl)isoquinolin-3-amine] |
| 2 nM | COCCn1cc(-c2ccc3cnc(Nc4ccc(-c5cnc(C)n5CCOC)cc4OC)cc3c2)cn1 [Example 31, N-(2-Methoxy-4-(1-(2-methoxyethyl)-2-methyl-1H-imidazol-5-yl)phenyl)-6-(1-(2-methoxyethyl)-1H-pyrazol-4-yl)isoquinolin-3-amine] |
| 2 nM | COc1cc(C(=O)N2CC(OC)C2)ccc1Nc1cc2cc(-c3cnn(CC(C)(C)O)c3)ccc2cn1 [Example 46, (4-(6-(1-(2-Hydroxy-2-methylpropyl)-1H-pyrazol-4-yl)isoquinolin-3-ylamino)-3-methoxy-phenyl)(3-methoxyazetidin-1-yl)methanone] |
| 2 nM | CCOc1cc(-c2nncn2C)ccc1Nc1cc2cc(-c3cnn(CC(C)(C)O)c3)ccc2cn1 [Example 48, 1-(4-(3-(2-Ethoxy-4-(4-methyl-4H-1,2,4-triazol-3-yl)phenylamino)isoquinolin-6-yl)-1H-pyrazol-1-yl)-2-methylpropan-2-ol] |
| 2 nM | COc1c(Nc2cc3cc(-c4cnn(CC(C)(C)O)c4)ccc3cn2)ccc(-c2cnc(C)n2C)c1F [Example 50, 1-(4-(3-(4-(1,2-Dimethyl-1H-imidazol-5-yl)-3-fluoro-2-methoxyphenylamino)isoquinolin-6-yl)-1H-pyrazol-1-yl)-2-methylpropan-2-ol] |
